Source: article PMC11330417, “Insights into the transglucosylation activity of α-glucosidase from Schwanniomyces occidentalis” (Applied Microbiology and Biotechnology, 2024)

Target: T1, α-glucosidase GAM1p (Schwanniomyces occidentalis, UniProt Q401B1, S845A)
T1 construct: gene GAM1; full-length gene with own signal peptide of 22 residues (960 aa precursor), no tag (native stop codon), AOX1 promoter vector pIB4, secreted by Komagataella phaffii GS115; glycosylated, about 143 kDa; concentrated on 50-kDa membrane
T1 sequence (Q401B1 entry or part of it S845A): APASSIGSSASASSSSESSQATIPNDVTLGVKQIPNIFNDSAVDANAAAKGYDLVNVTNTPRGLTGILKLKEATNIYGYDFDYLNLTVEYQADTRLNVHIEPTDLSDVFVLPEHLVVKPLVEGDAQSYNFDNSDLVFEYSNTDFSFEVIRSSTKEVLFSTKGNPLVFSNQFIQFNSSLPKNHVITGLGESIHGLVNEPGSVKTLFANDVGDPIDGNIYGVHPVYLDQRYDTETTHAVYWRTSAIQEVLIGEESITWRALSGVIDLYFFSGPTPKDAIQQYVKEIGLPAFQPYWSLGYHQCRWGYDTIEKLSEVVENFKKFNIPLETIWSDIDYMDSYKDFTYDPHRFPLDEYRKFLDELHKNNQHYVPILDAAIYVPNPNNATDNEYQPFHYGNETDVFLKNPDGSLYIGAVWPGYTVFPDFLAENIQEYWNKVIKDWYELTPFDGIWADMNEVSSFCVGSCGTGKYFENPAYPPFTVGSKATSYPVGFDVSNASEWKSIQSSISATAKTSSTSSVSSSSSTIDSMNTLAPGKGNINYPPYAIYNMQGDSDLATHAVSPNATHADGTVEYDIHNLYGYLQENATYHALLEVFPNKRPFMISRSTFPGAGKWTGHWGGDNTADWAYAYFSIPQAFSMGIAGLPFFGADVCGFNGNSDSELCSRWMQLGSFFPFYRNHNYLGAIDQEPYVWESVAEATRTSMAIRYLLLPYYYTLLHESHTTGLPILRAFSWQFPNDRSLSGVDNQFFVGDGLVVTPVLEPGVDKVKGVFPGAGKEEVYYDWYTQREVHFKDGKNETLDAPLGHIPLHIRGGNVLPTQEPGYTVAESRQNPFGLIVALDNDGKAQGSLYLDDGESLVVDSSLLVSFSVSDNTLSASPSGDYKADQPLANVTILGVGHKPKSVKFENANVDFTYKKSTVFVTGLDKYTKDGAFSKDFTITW
Assay: HPLC-PAD, MS and NMR of glucosylated products
Type: biochemical
Settings: glucosyl acceptor; 20 mM piceid, 300 g/L maltose as donor, 20% DMSO, sodium acetate pH 4.5, 37 °C

OC[C@H]1O[C@@H](Oc2cc(O)cc(/C=C/c3ccc(O)cc3)c2)[C@H](O)[C@@H](O)[C@@H]1O (mixture of isomers) [piceid]
HPLC-PAD, MS and NMR of glucosylated products: GAM1p was only able to glycosylate piceid (polydatin)
